Experiment [1] concerns the target T1, recombinant human CI-M6PR protein (Homo sapiens, UniProt P11717).
T1 construct: purchased R&D 6418-GR-050
Description: M6PR binding ELISA of matuzumab ligand-linker conjugates. The following applies: conjugates of ligand linkers. The method, then:
Binding affinity of matuzumab conjugated to ligand-linkers for M6PR w as determined by ELISA using the following protocol: Nunc black solid bottom MaxiSorp plates were allowed to incubate overnight at 4° C. coated with 1 μg/mL of recombinant human CI-M6PR protein (R&D, 6418-GR-050) in 50 μL PBS. The next day, coating was decanted and plates were washed 3× with PBS. Wells were blocked with 350 μL of 3% BSA-PBS for 1 hour at room temperature. Blocking solution was removed and matuzumab conjugates (matuzumab-Compound I-7 (d4), matuzumab-Compound I-7 (d8), matuzumab-Compound I-8 (d4), matuzumab-Compound I-9 (d4), matuzumab-Compound I-11 (d4) and matuzumab-Compound I-12 (d4)) and their respective isotype controls (human IgG (bioxcell, BP0297) conjugated to the ligand-linker compounds being tested) were diluted in 3% BSA-PBS. 50 µL of diluted conjugates were added to the plate and allowed to incubate at room temperature for 2 hours. After incubation, solutions in plate were decanted and washed with […] of 0.05% PBS-Tween20 three times, drying the plate each wash on a clean paper towel. 50 μL of peroxidase AffiniPure Mouse Anti-Human IgG (Jackson Immuno, 209-035-088) diluted in 3% BSA-PBS to 0.2 μg/mL was added to the plate and allowed to incubate for 1 hour at room temperature in the dark. […]

The test system of another experiment is Jurkat cells. Description: Intracellular uptake of anti-IgG2a conjugates with IgG2a-Alexa488 in Jurkat cells. Type of experiment: cell-based, human. The settings on record: 1 h and 24 h. The procedure:
Anti-IgG2a conjugates were generated by adding anti-IgG2a rIgG1 (Southern Biotech, Cat #1155-ol) to a solution of PBS buffer pH 7.2 containing 10% DMSO (final antibody concentration 5 mg/mL). Linker (e.g., Compound I-7) was added (at a 5-40× linker:antibody molar ratio), and the reaction was incubated at room temperature for 3 hours. Excess linker was removed by size exclusion chromatography (Superdex 200 Increase. Cat i28990944) and final DAR, was determined by LC/MS (Sciex 5600+. Acquity UPLC BEH C4 column. Cat #186004495). The resulting rIgG1 antibody conjugates were used in the experiments below.
The anti-IgG2a conjugates were bound to IgG2a-Alexa488, as follows: equal molar ratios of anti-IgG2a and IgG2a-Alexa488 were added in tissue culture media for 30 minutes at room temperature. The resulting anti-IgG2a:IgG2a antibody-Alexa488 compositions were added to Jurkat cells (100k cells/50 ul per well, n=2), and Alexa488 fluorescence levels were measured (via Alexa488 measurement) at 1 hour and 24 hours by flow cytometry. Because Alexa488 accumulates in cells, this presents a way to measure total intracellular uptake by cells over time.

T1 sequence (P11717 41-2491): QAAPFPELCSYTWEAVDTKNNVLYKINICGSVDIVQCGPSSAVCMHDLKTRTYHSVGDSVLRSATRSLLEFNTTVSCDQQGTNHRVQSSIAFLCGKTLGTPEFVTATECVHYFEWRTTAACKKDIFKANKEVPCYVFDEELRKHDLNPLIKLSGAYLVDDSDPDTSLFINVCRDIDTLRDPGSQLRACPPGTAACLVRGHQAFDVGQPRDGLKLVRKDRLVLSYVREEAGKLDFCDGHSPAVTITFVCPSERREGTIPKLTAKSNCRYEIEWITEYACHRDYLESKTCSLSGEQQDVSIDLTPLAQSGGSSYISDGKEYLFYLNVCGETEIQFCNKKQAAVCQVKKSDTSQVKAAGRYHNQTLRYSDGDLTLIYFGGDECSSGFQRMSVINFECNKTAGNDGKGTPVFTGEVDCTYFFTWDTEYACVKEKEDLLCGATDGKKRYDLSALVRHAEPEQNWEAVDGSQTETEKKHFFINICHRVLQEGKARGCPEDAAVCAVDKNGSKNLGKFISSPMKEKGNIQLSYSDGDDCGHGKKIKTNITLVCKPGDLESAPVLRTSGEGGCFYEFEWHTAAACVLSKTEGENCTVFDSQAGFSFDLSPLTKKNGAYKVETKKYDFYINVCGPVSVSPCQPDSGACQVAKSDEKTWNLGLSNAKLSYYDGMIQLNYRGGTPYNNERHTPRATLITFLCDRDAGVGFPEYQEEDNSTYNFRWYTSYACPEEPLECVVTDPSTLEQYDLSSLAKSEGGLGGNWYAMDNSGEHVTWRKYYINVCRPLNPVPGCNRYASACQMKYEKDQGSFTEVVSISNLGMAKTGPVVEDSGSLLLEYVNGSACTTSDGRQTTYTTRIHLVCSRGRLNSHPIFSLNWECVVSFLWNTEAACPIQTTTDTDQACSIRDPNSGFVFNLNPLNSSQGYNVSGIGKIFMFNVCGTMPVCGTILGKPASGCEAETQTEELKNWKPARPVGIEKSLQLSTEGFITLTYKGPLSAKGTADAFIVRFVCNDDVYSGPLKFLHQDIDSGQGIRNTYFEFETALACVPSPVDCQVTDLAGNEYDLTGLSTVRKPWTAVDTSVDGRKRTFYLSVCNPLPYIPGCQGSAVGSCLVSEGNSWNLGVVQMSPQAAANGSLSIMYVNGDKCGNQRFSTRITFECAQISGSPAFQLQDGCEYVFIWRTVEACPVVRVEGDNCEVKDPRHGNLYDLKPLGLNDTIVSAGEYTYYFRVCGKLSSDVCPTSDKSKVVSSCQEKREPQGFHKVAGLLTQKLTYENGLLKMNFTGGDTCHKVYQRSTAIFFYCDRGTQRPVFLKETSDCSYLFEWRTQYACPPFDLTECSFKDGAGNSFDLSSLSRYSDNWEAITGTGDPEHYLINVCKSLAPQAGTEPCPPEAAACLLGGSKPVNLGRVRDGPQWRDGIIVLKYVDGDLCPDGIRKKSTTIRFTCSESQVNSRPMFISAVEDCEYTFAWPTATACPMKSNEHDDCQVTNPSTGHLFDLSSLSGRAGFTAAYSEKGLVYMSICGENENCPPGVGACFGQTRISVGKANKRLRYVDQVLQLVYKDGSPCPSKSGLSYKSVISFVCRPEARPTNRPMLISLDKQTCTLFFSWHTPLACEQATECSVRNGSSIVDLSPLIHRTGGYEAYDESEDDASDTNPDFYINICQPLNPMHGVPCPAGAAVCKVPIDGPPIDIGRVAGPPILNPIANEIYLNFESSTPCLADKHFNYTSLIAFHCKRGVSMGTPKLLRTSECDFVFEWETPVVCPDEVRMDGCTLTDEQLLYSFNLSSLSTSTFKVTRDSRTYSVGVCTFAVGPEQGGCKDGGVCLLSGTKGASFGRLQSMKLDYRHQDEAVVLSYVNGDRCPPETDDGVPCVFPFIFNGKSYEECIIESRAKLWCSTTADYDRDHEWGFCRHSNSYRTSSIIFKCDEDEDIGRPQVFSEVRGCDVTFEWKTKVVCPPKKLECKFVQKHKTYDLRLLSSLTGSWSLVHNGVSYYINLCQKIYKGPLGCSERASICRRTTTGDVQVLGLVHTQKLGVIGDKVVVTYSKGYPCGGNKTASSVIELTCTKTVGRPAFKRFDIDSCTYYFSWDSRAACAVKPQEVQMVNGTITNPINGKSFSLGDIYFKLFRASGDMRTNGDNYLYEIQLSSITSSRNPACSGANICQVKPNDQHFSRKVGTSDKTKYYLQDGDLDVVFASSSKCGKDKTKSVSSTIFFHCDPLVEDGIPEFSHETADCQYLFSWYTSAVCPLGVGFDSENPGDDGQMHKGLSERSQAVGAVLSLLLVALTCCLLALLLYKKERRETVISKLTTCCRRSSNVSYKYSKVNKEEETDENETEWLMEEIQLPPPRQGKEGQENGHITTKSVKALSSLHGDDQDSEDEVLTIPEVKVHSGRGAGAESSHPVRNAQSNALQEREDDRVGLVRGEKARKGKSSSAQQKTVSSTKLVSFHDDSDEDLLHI

In the case of `O=C(CCOCCn1cc(CCO[C@H]2O[C@H](CCP(=O)(O)O)[C@@H](O)[C@H](O)[C@@H]2O)nn1)Oc1c(F)c(F)c(F)c(F)c1F` [Compound I-11], the “binding affinity to M6PR relative to Compound I-7” value in experiment [1] was “weaker binding affinity to M6PR than Compound I-7”. Moreover, the “intracellular uptake (Alexa488 fluorescence)” value in the experiment on Jurkat cells is on record as “sufficiently robust uptake”.
As to `O=C(CCN1C(=O)C=CC1=O)NCCOCCOCCOCCn1cc(CCO[C@H]2O[C@H](CCP(=O)(O)O)[C@@H](O)[C@H](O)[C@@H]2O)nn1` [Compound I-10], the “binding affinity to M6PR relative to Compound I-7” value in experiment [1] is reported as “weaker binding affinity to M6PR than Compound I-7”. Moreover, the “intracellular uptake (Alexa488 fluorescence)” value in the experiment on Jurkat cells is “sufficiently robust uptake”.

Values taken from patent publication US20230279426A1, “MODIFIED VIRAL COMPOSITIONS FOR VIRAL TRANSDUCTION” (Lycia Therapeutics, Inc., priority 2020, published 2023).
